Data set [1] is described as follows: Lipophilicity, logD of compound. The class given is physicochemical. As to conditions: octanol/water.
Data set [2] is described as follows: Metabolic stability in human liver microsomes assessed as intrinsic clearance. The settings on record: read-out: CLH. Format: ADME, Microsome. A general note: Microsomes from liver hold many membrane-bound enzymes, among them those of drug oxidation.
The nature of data set [3]: Metabolic stability in rat hepatocyte assessed as intrinsic clearance. Format: ADME, tissue-based. The settings on record: hepatocytes.
Data set [4] in a line: Solubility of compound. Format: physicochemical.
The nature of data set [5]: Metabolic stability in human hepatocyte assessed as intrinsic clearance. Format: ADME, tissue-based. The settings on record: hepatocytes.
The nature of data set [6]: Clearance in Han Wistar rat at 0.5 mg/kg, iv or 1 mg/kg, po. Format: ADME, organism-based. As to conditions: in vivo.
The nature of data set [7]: Unbound clearance in Han Wistar rat at 0.5 mg/kg, iv or 1 mg/kg, po. The settings on record: in vivo. Format: ADME, organism-based.
A short description of data set [8]: Volume of distribution at steady state in Han Wistar rat at 0.5 mg/kg, iv or 1 mg/kg, po. The class given is ADME, organism-based. As to conditions: in vivo, read-out: Vdss.
Data set [9] in a line: Oral bioavailability in Han Wistar rat at 1 mg/kg. The class given is ADME, organism-based. As to conditions: in vivo.
The nature of data set [10]: Clearance in CD-1 mouse at 0.5 mg/kg, iv or 1 mg/kg, po. Format: ADME, organism-based. The settings on record: in vivo.
Data set [11] is described as follows: Clearance for unbound fraction in CD-1 mouse at 0.5 mg/kg, iv or 1 mg/kg, po. The class given is ADME, organism-based. As to conditions: in vivo.
The nature of data set [12]: Volume of distribution at steady state in CD-1 mouse at 0.5 mg/kg, iv or 1 mg/kg, po. Format: ADME, organism-based. The settings on record: in vivo, read-out: Vdss.
A short description of data set [13]: Oral bioavailability in CD-1 mouse at 1 mg/kg. The settings on record: in vivo. The class given is ADME, organism-based.
Data set [14] is described as follows: Apparent permeability of the compound across apical to basolateral side in human Caco-2 cells at pH 6.5. As to conditions: Caco-2, pH 6.5. The class given is ADME, cell-based. In general terms: Caco-2 cells form a polarised layer with tight junctions and transporters.
Data set [15] is described as follows: Dissociation constant, pKa of the compound. Format: physicochemical.
The conditions of data set [16]: mouse, hepatocytes.

The values below come from ChEMBL document CHEMBL4673232, “Optimization of a series of potent, selective and orally bioavailable SYK inhibitors” (Bioorg Med Chem Lett, 2020).

By logD is commonly meant the decadic logarithm of the distribution of all forms, ionised or not, between an organic phase and buffer at a given pH. What is called solubility is the dissolved amount per volume that the medium holds. As usually defined, the bioavailability is dose-corrected exposure relative to a reference, in per cent. The Papp A→B is how fast a substance crosses the layer from the apical side. As usually defined, the pKa is the pH at which an ionisable group is half protonated. Low readings indicate a group that gives up its proton readily, high ones a group that holds its proton tightly.

Values after ≈ are worked out from the molar mass of the structure shown.

`Cc1nn(-c2ccnc(Nc3ccc4c(c3)c(Cl)c(C)n4C)n2)cc1CN1CC(O)C1`: the pH-dependent lipophilicity (logD) in data set [1] turned out to be 3.9. For the same compound, the microsomal CLint in data set [2] is 49 µL/min/mg. Further, the CLH in [3] came out at 66 µL/min.

In turn, `COC(=O)c1nn(C)c2c(C)cc(Nc3nccc(-c4cc(CN(C)C)n(C)n4)n3)cc12` came in with a log distribution coefficient (logD) in [1] of 3.2. Moreover, the CLH in [3] is 186 µL/min.

In turn, `CNC(=O)c1nn(C)c2ccc(Nc3nccc(-n4cc(CN(C)C)c(F)n4)n3)cc12` gave a logD in [1] of 2.8. Further, the microsomal CLint in data set [2] is 84 µL/min/mg. Further, the CLH in data set [3] came to 34 µL/min.

`CNC(=O)c1nn(C)c2ccc(Nc3nccc(-n4cc(CN(C)C)c(OC)n4)n3)cc12` yielded a logD in data set [1] of 2.3. For the same compound, the microsomal CLint in [2] is 103 µL/min/mg. The CLH in [3] turned out to be 21 µL/min.

As for `Cc1nnc(-c2nc(C)n3ccc(Nc4nccc(-c5cc(CN(C)C)n(C)n5)n4)cc23)o1`, in data set [1], the pH-dependent lipophilicity (logD) is 2.4. The microsomal CLint in data set [2] is 40 µL/min/mg. For the same compound, the CLH in data set [3] worked out at 12 µL/min; in data set [5], 1.9 µL/min; in data set [16], 44 µL/min. This compound registered a solubility in [4] of 97 µM (≈ 43.1 µg/mL). The results for the clearance in data set [6] and in data set [10] were 189 mL/min/kg and 255 mL/min/kg, respectively. In addition, the CL free was 787 mL/min/kg in [7] and 955 mL/min/kg in data set [11]. Besides, the Vd in data set [8] turned out to be 11 L/kg; in data set [12] it was 8 L/kg. The bioavailability in [9] worked out at 5%; in [13], 7%. Moreover, the Papp A→B in data set [14] was determined as 6.5 ×10⁻⁶ cm/s. Besides, the pKa in data set [15] amounted to 7.2.

In the case of `CNC(=O)c1ncn2ccc(Nc3nccc(-n4cc(CN(C)C)cn4)n3)cc12`, in data set [1], the logD was determined as 1.4. For the same compound, in data set [2], the microsomal CLint was 9 µL/min/mg. Also, the CLH in data set [3] was 34 µL/min.

`CNC(=O)c1nn(C)c2ccc(Nc3nccc(-c4cc(CN(C)C)n(C)n4)n3)cc12` displayed a logD in data set [1] of 2.2. Also, the microsomal CLint in [2] was 93 µL/min/mg. Also, the CLH in data set [3] worked out at 51 µL/min. The same compound yielded a pKa in [15] of 7.3.

`CNC(=O)c1nn(C)c2c(C)cc(Nc3nccc(-n4cc(CN(C)C)cn4)n3)cc12` yielded a pH-dependent lipophilicity (logD) in data set [1] of 2.3. In addition, the microsomal CLint in data set [2] was 32 µL/min/mg. In addition, the CLH in data set [3] stood at 49 µL/min.

`CNC(=O)c1nn(C)c2ccc(Nc3nccc(-n4cc(CN5CC(O)C5)c(C)n4)n3)cc12` returned a logD in [1] of 1.9. Also, the microsomal CLint in data set [2] stood at 78 µL/min/mg. The CLH in data set [3] is 19 µL/min. The same compound returned a pKa in [15] of 8.6.

In [1], `Cc1nnc(-c2nn(C)c3ccc(Nc4nccc(-c5cc(CN(C)C)n(C)n5)n4)cc23)o1` yielded a pH-dependent lipophilicity (logD) of 2.6. For the same compound, the CLH in data set [3] was 14 µL/min.

`CNC(=O)c1nc(C)n2ccc(Nc3nccc(-n4cc([C@@H]5C[C@H](O)CN5C)cn4)n3)cc12` returned a log distribution coefficient (logD) in [1] of 2. Besides, in [2], the microsomal CLint was found to be 110 µL/min/mg. For the same compound, in [3], the CLH was 17 µL/min. The compound also came in with a pKa in data set [15] of 7.9.

In [1], `CNC(=O)c1nn(C)c2ccc(Nc3nccc(-n4cc(CN(C)C)cn4)n3)cc12` had a logD of 1.8. For the same compound, the microsomal CLint in [2] was found to be 52 µL/min/mg. For the same compound, the CLH came to 31 µL/min in data set [3] and 21 µL/min in [5]. Besides, in data set [4], the solubility was 909 µM (≈ 369 µg/mL). Besides, in data set [6], the clearance was 8 mL/min/kg. For the same compound, the CL free in [7] stood at 250 mL/min/kg. The Vd in data set [8] was 1.1 L/kg. Moreover, the bioavailability in [9] was determined as 60%.

The compound `CNC(=O)c1nn(C)c2c(C)cc(Nc3nccc(-c4cc(CN(C)C)n(C)n4)n3)cc12` returned a pH-dependent lipophilicity (logD) in data set [1] of 2.6. Besides, in data set [2], the microsomal CLint stood at 106 µL/min/mg. Further, the CLH in data set [3] stood at 64 µL/min.

On to `CNC(=O)c1nc(C)n2ccc(Nc3nccc(-n4cc([C@@H]5C[C@@H](F)CN5C)cn4)n3)cc12`, for which, in data set [2], the microsomal CLint was determined as 278 µL/min/mg. Also, the CLH in data set [3] was 31 µL/min.

`CN(C)Cc1cnn(-c2ccnc(Nc3ccc4c(c3)c(C(=O)N(C)C)nn4C)n2)c1` had a logD in [1] of 1.7. Also, the microsomal CLint in [2] was determined as 43 µL/min/mg. In addition, the CLH in [3] came out at 33 µL/min.
